Results taken from patent US6511798B1, “Methods for the preparation of cell monolayers” (Zeneca Limited, priority 1998, dated 2003).
Read-outs that look alike come from different tables or passages of the source. Blank lines part the entries; values can stand above or below the compound they belong to.

Legend:
[1] = tested on: cell monolayers on BIOCOAT "3 day" system or polycarbonate filters; settings: cited from earlier work
[2] = target: P-glycoprotein (Homo sapiens, UniProt P08183); settings: 6 well Biocoat inserts; without verapamil
P-glycoprotein, sequence (P08183 whole entry): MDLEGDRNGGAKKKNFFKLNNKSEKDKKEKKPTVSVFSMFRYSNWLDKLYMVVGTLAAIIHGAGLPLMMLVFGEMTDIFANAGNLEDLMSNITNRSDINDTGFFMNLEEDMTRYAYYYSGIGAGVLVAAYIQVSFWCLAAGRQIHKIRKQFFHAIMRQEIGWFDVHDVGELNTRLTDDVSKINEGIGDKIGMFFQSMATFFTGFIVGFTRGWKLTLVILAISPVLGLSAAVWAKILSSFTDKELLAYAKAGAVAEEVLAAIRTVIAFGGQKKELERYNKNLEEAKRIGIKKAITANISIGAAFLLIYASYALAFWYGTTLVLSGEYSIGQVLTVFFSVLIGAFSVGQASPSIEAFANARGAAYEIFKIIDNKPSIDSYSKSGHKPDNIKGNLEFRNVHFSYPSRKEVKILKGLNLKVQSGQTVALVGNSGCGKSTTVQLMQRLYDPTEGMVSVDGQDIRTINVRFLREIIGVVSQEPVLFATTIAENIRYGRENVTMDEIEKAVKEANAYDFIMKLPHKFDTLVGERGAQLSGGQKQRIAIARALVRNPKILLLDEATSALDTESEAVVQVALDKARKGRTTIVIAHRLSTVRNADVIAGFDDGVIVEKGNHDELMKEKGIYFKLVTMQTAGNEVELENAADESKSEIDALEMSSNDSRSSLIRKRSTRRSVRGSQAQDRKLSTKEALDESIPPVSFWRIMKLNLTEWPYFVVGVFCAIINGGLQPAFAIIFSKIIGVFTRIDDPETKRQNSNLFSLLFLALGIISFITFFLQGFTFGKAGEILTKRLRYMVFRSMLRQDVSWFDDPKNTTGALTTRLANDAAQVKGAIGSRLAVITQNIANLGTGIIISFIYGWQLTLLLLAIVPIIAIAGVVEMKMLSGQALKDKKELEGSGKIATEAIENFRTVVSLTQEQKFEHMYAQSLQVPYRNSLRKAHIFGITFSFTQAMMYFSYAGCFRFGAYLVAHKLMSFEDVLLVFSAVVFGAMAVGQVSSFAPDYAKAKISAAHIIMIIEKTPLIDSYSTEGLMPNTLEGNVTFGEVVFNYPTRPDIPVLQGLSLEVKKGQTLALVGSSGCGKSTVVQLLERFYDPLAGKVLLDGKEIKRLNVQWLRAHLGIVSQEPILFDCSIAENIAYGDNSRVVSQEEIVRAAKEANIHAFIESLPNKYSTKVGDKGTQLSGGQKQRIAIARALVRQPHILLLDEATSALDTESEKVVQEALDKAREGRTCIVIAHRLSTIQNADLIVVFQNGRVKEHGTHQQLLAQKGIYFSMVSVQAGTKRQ
Experimental: (§1) Solutions of drug for screening are prepared with Hank's Balanced Salts solution (HBSS) buffered to pH7.4 with HEPES. Up to 1% DMSO may be added to aid solubilisation. These drug solutions are added to either the apical (1.5 ml) or the basolateral (3.0 ml) chambers of a 6 well system, and HBSS at pH7.4 is added to the opposite chamber. 0.5 ml samples are taken at regular time intervals from the receiver chamber and the volume replaced with fresh pre-warmed HBSS at pH7.4. A donor sample is taken initially and at the final time point. Samples are analysed using appropriate methods. The volumes are modified accordingly for other plate formats (e.g. 400 μL apical volume, 1 mL basolateral volume for a 24 well plate).

[3] = tested on: Caco-2 cell monolayer; test: in vitro
Experimental: (§2) This was carried out with the hydrophilic markers, ^14C-mannitol and Lucifer Yellow.
as §1
(§3) The results are expressed as cumulative amount or percentage transported versus time. An absorption apparent permeability coefficient, Papp, can been calculated where: [formula]
(§4) where dQ/dt is the permeability rate (over the linear portion of the curve), C0 is the initial concentration in the donor chamber and A (cm^2) is the surface area of the filter insert supporting the cell monolayer.

[4] = in vitro; settings: human, Caco-2, pH 7.4
Experimental: as §2, §1, §3, §4

[5] = target: T1, apical di-peptide transporter (Homo sapiens, UniProt P46059); test: Transport of 14C-Gly-sar across Caco-2 monolayers, A-B and B-A; format: in vitro ADME; settings: pH 6 and 7.4
T1 construct: show functional expression of the dipeptide carrier and p-glycoprotein; endogenous in cells; host or cells: Caco-2 (ECACC 86010202)
T1 sequence (P46059 1-708): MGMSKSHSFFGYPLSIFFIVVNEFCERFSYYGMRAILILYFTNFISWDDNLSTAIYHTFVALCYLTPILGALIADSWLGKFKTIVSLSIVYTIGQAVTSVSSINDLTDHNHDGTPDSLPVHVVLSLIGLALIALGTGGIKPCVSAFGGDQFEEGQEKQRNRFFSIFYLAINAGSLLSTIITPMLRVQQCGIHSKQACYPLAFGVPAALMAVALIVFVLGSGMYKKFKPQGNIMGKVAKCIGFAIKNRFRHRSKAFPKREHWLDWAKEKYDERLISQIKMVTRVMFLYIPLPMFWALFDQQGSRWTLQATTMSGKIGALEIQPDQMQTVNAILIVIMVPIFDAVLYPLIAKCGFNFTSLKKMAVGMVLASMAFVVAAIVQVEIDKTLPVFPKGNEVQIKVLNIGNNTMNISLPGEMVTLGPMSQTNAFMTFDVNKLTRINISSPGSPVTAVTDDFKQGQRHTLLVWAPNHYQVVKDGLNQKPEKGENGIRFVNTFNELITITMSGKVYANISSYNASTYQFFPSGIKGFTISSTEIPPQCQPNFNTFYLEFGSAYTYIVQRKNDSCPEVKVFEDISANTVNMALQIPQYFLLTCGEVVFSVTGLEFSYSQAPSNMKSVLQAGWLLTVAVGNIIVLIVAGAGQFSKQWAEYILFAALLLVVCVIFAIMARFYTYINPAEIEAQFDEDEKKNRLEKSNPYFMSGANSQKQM
Experimental: Samples are analysed using appropriate methods.

[6] = Polycarbonate (1), Artursson et al 1996, 14C-mannitol

Compound: OC[C@@H](O)[C@@H](O)[C@H](O)[C@H](O)CO [^3H-Mannitol]
Papp [1]: 0.76 cm.s^−1 × 10^6

Compound: CC[C@]1(O)C[C@@H]2CN(CCc3c([nH]c4ccccc34)[C@@](C(=O)OC)(c3cc4c(cc3OC)N(C)[C@H]3[C@@](O)(C(=O)OC)[C@H](OC(C)=O)[C@]5(CC)C=CCN6CC[C@]43[C@@H]65)C2)C1 [^3H-vinblastine]
transport B to A versus A to B [2]: significantly greater B to A transport

Compound: Lucifer Yellow
% Transported/hour ([1]; Polycarbonate (4), Hidalgo et al 1989, Lucifer Yellow): 0.11%
% Transported/hour ([3]; Caco-2): 0.13%
Average Lucifer Yellow Transported ([3]; Caco-2): 0.13%

Continued, in another order:

Papp ([3]; Caco-2): 0.4 cm.s^−1 × 10^6
% Transported/hour ([3]; human, Caco-2, 1 h, pH 7.4): <0.5%
Average Mannitol Transported ([3]; human, Caco-2, 60 min, pH 7.4): 0.36-0.40%
Papp at 60 min [4]: ~0.4 ×10⁻⁶ cm/s
Compound: OC[C@@H](O)[C@@H](O)[C@H](O)[C@H](O)CO [^14C-Mannitol, ^14C-mannitol]
Papp ([1]; BIOCOAT "3 day" system, 14C-mannitol): <4.0 cm.s^−1 × 10^6
% Transported/hour [1, 6]: 0.05%
Papp [1, 6]: 0.1-1.0 cm.s^−1 × 10^6
% Transported/hour ([1]; Polycarbonate (3), Taub 1997, 14C-mannitol): 1.5%

transport A-B versus B-A ([5]; 24 well PET inserts): increased transport in the A-B direction
transport A-B versus B-A ([5]; collagen coated 6 well Biocoat filters): increased transport in the A-B direction
Compound: CN(CC(=O)O)[14C](=O)CN [^14C-Gly-sar]
